Experimental data from US20120114706A1, “Endorphin Therapy Compositions and Methods of Use Thereof” (priority 2008, published 2012).
“Also recorded” adds a separate entry of the source.

Tests used:
MADB106 cells = assay: Pharmacologic modification of autonomic influence on immune system and lung metastasis; assay type: in vivo, rat; details: for PBMC NK cell activity / macrophage migration activity: 24 hours after MADB106 inoculation, naloxone 10, MP/MET 0.8, MLA 2.5 mg/kg or saline; for effect on β-EP elimination of tumor cell lung retention: β-EP transplanted Fischer rats, naloxone 10, MP/MET 0.8, MLA 2.5 mg/kg for 8 days
Procedure: 48 β-EP implanted (SC) male Fischer rats and 48 control (C) male Fischer rats were divided into 8 groups, treated with saline, Naloxone (10 mg/kg body weight), Metaproterenol (MP, 0.8 mg/kg body weight), or Methyllycaconitine (MLA, 2.5 mg/kg body weight), respectively. Animals were treated with drugs for 8 days. In the second day of drug injection, animals were inoculated with MADB106 cells (100,000/0.2 ml/rat). 24 hours after tumor cell inoculation, blood was collected by orbital puncture. Plasma was collected, and PBMCs were separated for migration assay and NK cytolytic assay. 7 days after tumor inoculation, blood was taken again by orbital puncture. Plasma was collected, and PBMCs were separated for migration assay and T cell cytolytic assay. After 6 weeks, animals were sacrificed, and brains, spleens and blood were frozen. Lungs were fixed in formalin and processed to H&E staining. […] However, 7 days after tumor inoculation, there isn't a clear pattern of T cell cytolytic activity and macrophage migration activity between groups (FIGS. 30B and 30D).
It was hypothesized that the beneficial effect of BEP neuron transplants on immune function is regulated through autonomic nervous system, and that central BEP modulate peripheral immune function by inhibiting the sympathetic activity and activating the parasympathetic activity. Metaproterenol (MET) is an agonist for β-receptors, which are a class of G protein-coupled receptors that are targets of the catecholamines, especially norepinephrine and epinephrine (Dokur et al. (2004) J Neuroimmunol 5:148-57; Page et al. (2008) J Neuroimmunol 193:113-9). Methyllycaconitine (MLA) is a selective antagonist of α7 nicotine acetylcholine receptor (α7 nAChR; Wu et al. (2011) Clin Cancer Res 17:3533-41). By injecting MET and MLA i.p., the stimulation of sympathetic nerves and inhibition of parasympathetic nerves was mimicked. Naloxone, an opiate receptor antagonist, was used to test whether BEP neuronal effects is acted via opiodergic receptor (Boyadjieva et al. (2006) Alcohol Clin Exp Res 30:1761-7). Forty-eight BEP neuron-transplanted Fischer rats and 48 control rats were divided into 8 groups and treated with saline, naloxone (10 mg/kg body weight), MET (0.8 mg/kg body weight), or MLA (2.5 mg/kg body weight) for 8 days (the doses used for these drugs are recognized as effective biological doses). A day after the first injection of these agents, animals were inoculated with MADB106 cells (100,000/0.2 mL/rat). Twenty-four hours after tumor cell inoculation, blood was collected by orbital puncture. Plasma was collected, and peripheral blood mononuclear cells (PBMC) were separated for migration assay and NK cytolytic assay. These animals continued receiving the blocker treatments for 7 days. After 4 weeks they were sacrificed, their lungs were fixed in formalin and processed to H&E staining for determination of cancer pathology. Brain tissues were processed for verification of the site and viability of BEP cell transplantation.

[1] = test system: differentiated BEP neurons; assay: PGE1-induced BEP release and POMC expression of differentiated neurons; assay type: cell-based, rat; details: PGE1 10 μM
Procedure: Enriched hypothalamic neurons were maintained in HDMEM, containing 10% FBS, for 3 weeks. Each week, cells were trypsinized and cultured. By the beginning of the third week, many spheres started to develop. These spheres were separated and dissociated into single cells by using trypsin/EDTA (Sigma) solution. They were then cultured in suspension or in poly-L-ornithine-coated 24-well plates (20,000 cells/well) in stem cell medium (DME F-12, […] (LIF), 0.1 μg/ml; L-glutamine, 10 mM; rat bFGF, 20 ng/ml; Mem amino acids solution, MAA, 0.5%; all of the chemicals were from Sigma except that bFGF was obtained from R&D Systems, Minneapolis, Minn.). Cells were cultured for 2 weeks, during which they grew and developed secondary spheres. Some of these cultures were used for immunocytochemical localization of nestin staining to determine whether they were neurospheres. These neurospheres were maintained in cultures for several months by regularly changing the medium and by splitting cells. The secondary spheres were re-suspended and cultured in poly-L-ornithine-coated 24-well plates (20,000/well; for physiological studies) or in poly-L-ornithine-coated 8-well permanox slides (1000 cells/slide; NaIg Nunc International Corp., IL; for histochemical studies). The differentiation experiments were performed by treating these cells for 1 week with PACAP (1-10 μM; SynPep) and dbcAMP (1-10 μM; Sigma) or a combination of both, and then in defined cell culture medium without the drugs for 1 week. At day 3, day 7 and day 14 the immunocytochemical, biochemical and/or real-time RT-PCR analyses were performed.
The immunoreactive β-endorphin levels in culture medium samples were measured by a radioimmunoassay system (De et al. (1994) J. Biol. Chem., 269:26697-26705). All the samples were dried and reconstituted in assay buffer and measured in duplicate in a single assay. The minimum amount of β-endorphin detectable was 3 pg/tube.
Expression levels of POMC mRNA in NSCs and differentiated cells were measured by a quantitative real-time RT-PCR (TaqMan assay) on an ABI PRISM 7700 Sequence Detector (PerkinElmer Applied Biosystems, Foster City, Calif.) as described previously (Chen et al. (2004) J. Neurochem., 88:1547-1554). […] The expression of POMC mRNA was detected using a POMC gene-specific primer pair and probe (TaqMan Gene Expression Assay, Rn00595020_ml; Applied Biosystems; Foster City, Calif.). […] The relative quantity of mRNA was calculated by relating the PCR threshold cycle obtained from the tested samples to relative standard curves degenerated from a serial dilution of cDNA prepared from the total RNA. The POMC mRNA level in each sample was normalized with the level of GAPDH mRNA which was measured by a control reagent (PerkinElmer Applied Biosystems). […]

[2] = test system: rat hypothalamic neuronal stem cells (NSCs); assay: Differentiation of hypothalamic neuronal stem cells to BEP neurons in culture; assay type: cell-based; details: agent alone, 0.1-10 μM
Procedure: Fetal brains were obtained from 17-day-old pregnant rats (Simonsen laboratories; Gilroy, […].). Mediobasal hypothalamic tissues from these rats were dissected out and cells from these tissues were dissociated, and mixed hypothalamic cell cultures were prepared as previously described (De et al. (1994) J. Biol. Chem., 269:26697-26705). Neurons were separated from glial cells by filtering mixed hypothalamic cells through a 48-μM nylon mesh. Then hypothalamic cells were sedimented at 400 g for 10 minutes; pellets were re-suspended in HEPES-buffered Dulbecco's Modified Eagle's Medium (HDMEM, 4.5 g/l glucose; Sigma, St. Louis, Mo.); and cells were cultured into poly-ornithine coated 25-cm^2 tissue culture flasks (2.5 million cells/flask) in HDMEM-containing 10% fetal bovine serum (FBS) and 1% penicillin/streptomycin. On day 2, the culture medium was replaced with HDMEM containing 10% FBS, 33.6 μg/ml uridine and 13.6 μg/ml 5-fluodeoxyuridine to prevent the overgrowth of astroglial cells. All of these chemicals were obtained from Sigma. On day 3, the culture medium was replaced with HDMEM-containing serum supplement (30 nM selenium, 20 nM progesterone, 1 μM iron-free human transferrin, 5 μM insulin, and 100 μM putrescin) and 1% penicillin/streptomycin. […] By this time, these cultures were approximately 85-90% neurons, as determined by MAP-2 positivity. […]

Compound | PBMC NK cell activity (MADB106 cells) | macrophage migration activity (MADB106 cells) | effect on β-EP elimination of tumor cell lung retention (MADB106 cells) | effect on neurosphere differentiation [2] | further results
CC(C)NCC(O)c1cc(O)cc(O)c1 (stereo not drawn) [MP, Metaproterenol] | reversed the effect of β-EP | reversed the effect of β-EP | stopped the effect of β-EP |  | PBMC NK cell activity (MADB106 cells; listed as MET): moderate or strong inhibitory effect; macrophage migration activity (MADB106 cells; listed as MET): moderate or strong inhibitory effect; effect on β-EP elimination of tumor cell lung retention (MADB106 cells; listed as MET): prevented, at various degrees
CCCCC[C@H](O)/C=C/[C@H]1[C@H](O)CC(=O)[C@@H]1CCCCCCC(=O)O [PGE1, prostaglandin E1] |  |  |  |  | BEP release ([1]; cells at 1 week): only moderately enhanced; POMC expression ([1]; cells at 1 week): no effect; BEP-release response ([1]; cells at 2 weeks): significantly increased; POMC-expression response ([1]; cells at 2 weeks): significantly increased
pituitary adenylate cyclase-activating peptide [PACAP] |  |  |  | moderate effect | 
CCCC(=O)Nc1ncnc2c1ncn2[C@@H]1O[C@@H]2COP(=O)(O)O[C@H]2[C@H]1OC(=O)CCC [dbcAMP, dibutyryl cAMP] |  |  |  | moderate effect | 
CCN1C[C@]2(COC(=O)c3ccccc3N3C(=O)C[C@H](C)C3=O)CC[C@H](OC)[C@@]34[C@@H]5C[C@H]6[C@H](OC)[C@@H]5[C@](O)(C[C@@H]6OC)[C@@](O)([C@@H](OC)[C@H]23)[C@@H]14 [MLA, Methyllycaconitine] | reversed the effect of β-EP; also recorded: moderate or strong inhibitory effect | reversed the effect of β-EP; also recorded: moderate or strong inhibitory effect | stopped the effect of β-EP; also recorded: prevented, at various degrees |  | 
